Our source for the EC50 and IC50 values is ChEMBL document CHEMBL1201862, “PubChem BioAssay data set” (2004).

Calls of active or inactive are those of the source. For most assays here, no stated cut-off is given here; in the data, actives have a measured EC50 and inactives only a lower limit.

In assay [1] the test system is BJ. Kind of assay: BJ-TERT fibroblast viability loss – cell-based, RAS-independent, luminescence, dose response (AID 1933). In kind it is functional. As to conditions: Homo sapiens.
Assay [2] concerns BJ. Kind of assay: cells. The class given is functional, cell-based. As to conditions: Homo sapiens.
Assay [3] deals with T1, Sentrin-specific protease 7 (Homo sapiens, UniProt Q9BQF6).
T1 sequence (Q9BQF6 whole entry): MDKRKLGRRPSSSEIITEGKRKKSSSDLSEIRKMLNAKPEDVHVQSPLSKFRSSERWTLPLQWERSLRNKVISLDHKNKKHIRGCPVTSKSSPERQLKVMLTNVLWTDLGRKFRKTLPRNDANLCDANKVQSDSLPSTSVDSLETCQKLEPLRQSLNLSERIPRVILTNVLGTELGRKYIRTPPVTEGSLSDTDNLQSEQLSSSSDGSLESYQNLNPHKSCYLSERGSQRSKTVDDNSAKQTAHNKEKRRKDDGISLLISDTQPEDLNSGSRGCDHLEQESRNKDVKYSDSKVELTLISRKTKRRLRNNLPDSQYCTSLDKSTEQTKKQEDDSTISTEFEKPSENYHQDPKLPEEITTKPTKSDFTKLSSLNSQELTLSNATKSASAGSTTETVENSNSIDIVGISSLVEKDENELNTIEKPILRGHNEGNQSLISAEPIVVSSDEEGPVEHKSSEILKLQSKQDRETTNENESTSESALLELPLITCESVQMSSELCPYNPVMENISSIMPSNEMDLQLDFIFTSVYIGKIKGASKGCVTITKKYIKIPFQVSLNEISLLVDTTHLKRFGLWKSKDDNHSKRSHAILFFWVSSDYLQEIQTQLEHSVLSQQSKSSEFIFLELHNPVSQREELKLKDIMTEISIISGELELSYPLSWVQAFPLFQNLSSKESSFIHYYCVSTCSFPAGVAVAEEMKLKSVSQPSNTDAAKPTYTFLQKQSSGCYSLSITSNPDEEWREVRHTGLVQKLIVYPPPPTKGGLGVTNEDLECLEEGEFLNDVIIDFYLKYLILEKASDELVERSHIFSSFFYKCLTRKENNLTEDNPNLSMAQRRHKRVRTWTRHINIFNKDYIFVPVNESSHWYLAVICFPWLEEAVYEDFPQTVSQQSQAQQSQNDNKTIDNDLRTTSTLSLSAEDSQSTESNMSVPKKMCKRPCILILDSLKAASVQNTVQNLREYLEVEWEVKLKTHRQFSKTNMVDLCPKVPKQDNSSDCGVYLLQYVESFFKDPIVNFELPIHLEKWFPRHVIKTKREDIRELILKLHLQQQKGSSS
In kind it is functional.
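Wherever IC50 is given: Luminescence-based dose-response confirmation of ultra-high-throughput screening hits, measuring inhibition of SENP7.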

As a reminder, the EC50 is the midpoint of the concentration-response curve. For `CCCCC(=O)NC(c1ccc(N(C)C)cc1)c1ccc2cccnc2c1O` (stereo not drawn), the EC50 in the assay with BJ [1] was 1.05 µM (active); in the assay on BJ [2], 3.12 µM (active).
For orientation: IC50 means the concentration needed to halve the response being measured. With `CN(CC(=O)Nc1ccccc1Cl)C(=O)COC(=O)c1ccc([N+](=O)[O-])s1`, in assay [3], the IC50 was 8.73 µM (active).
